Results: BindingDB's records for doi:10.7270/Q2H70D5W (University of Pittsburgh, 2007)

molecular target: Gag-Pol polyprotein (Human immunodeficiency virus type 1 group M subtype B (isolate HXB2), UniProt P04585); assay: HIV-1 RT RNase H inhibitor potency, dose response, biochemical, probe assessment (AID 652); details: pH 8; 23 °C

| SMILES | IC50 [µM] |
| --- | --- |
| Cc1cc(NC(=O)CSc2nc(C3CC3)nc3sc4c(c23)CCC(C)C4)no1 (stereo not given) [2-(2-Cyclopropyl-7-methyl-5,6,7,8-tetrahydro-benzo[4,5]thieno[2,3-d]pyrimidin-4-ylsulfanyl)-N-(5-methyl-isoxazol-3-yl)-acetamide] | 5.41 |
| NC(=O)c1cc(-c2ccccc2)sc1NC(=O)Cc1ccc(S(=O)(=O)N2CCOCC2)s1 [2-[2-(5-morpholin-4-ylsulfonylthiophen-2-yl)ethanoylamino]-5-phenyl-thiophene-3-carboxamide] | 7.35 |
| Cc1cccc(N2CSC3=C(C#N)C(c4ccc(C)o4)CC(=O)N3C2)c1 (stereo not given) [MLS000080648] | 0.434 |
| O=c1c2ccccc2sn1-c1cc(S(=O)(=O)N2CCOCC2)ccc1N1CCOCC1 [2-(2-morpholin-4-yl-5-morpholin-4-ylsulfonyl-phenyl)-1,2-benzothiazol-3-one] | 0.579 |
| COC(=O)c1sc(N2C(=O)c3oc4ccccc4c(=O)c3C2c2cccs2)nc1C (stereo not given) [2-(3,9-dioxo-1-thiophen-2-yl-1H-[1]benzopyrano[2,3-c]pyrrol-2-yl)-4-methyl-5-thiazolecarboxylic acid methyl ester] | 5.25 |
| COc1ccc(N2CSC3=C(C#N)C(c4cc(OC)ccc4OC)CC(=O)N3C2)c(OC)c1 (stereo not given) [3-(2,4-dimethoxyphenyl)-8-(2,5-dimethoxyphenyl)-6-keto-2,4,7,8-tetrahydropyrido[2,1-b][1,3,5]thiadiazine-9-carbonitrile] | 2.9 |
| COc1ccc(N2CCN(Cc3cc(=O)oc4cc5c(cc34)CCCC5)CC2)cc1 [4-[[4-(4-methoxyphenyl)-1-piperazinyl]methyl]-6,7,8,9-tetrahydrobenzo[g][1]benzopyran-2-one] | 4.35 |
| CN(C)c1ccc(NC=C2C(=O)NC(=O)N(CCC3=CCCCC3)C2=O)cc1 [(5Z)-1-[2-(cyclohexen-1-yl)ethyl]-5-[[[4-(dimethylamino)phenyl]amino]methylidene]-1,3-diazinane-2,4,6-trione] | 3.8 |
| CCCc1nnc(NC(=O)CN2C(=O)c3ccccc3S2(=O)=O)s1 [2-(1,1-dioxido-3-oxo-1,2-benzisothiazol-2(3H)-yl)-N-(5-propyl-1,3,4-thiadiazol-2-yl)acetamide] | 3.23 |
| COc1cccc(-c2nnc(NC(=O)c3ccc(S(=O)(=O)N(CC(C)C)CC(C)C)cc3)o2)c1 [4-(diisobutylsulfamoyl)-N-[5-(3-methoxyphenyl)-1,3,4-oxadiazol-2-yl]benzamide] | 4.77 |
| COc1cc(OC)c(C2CC(=O)N3CN(C)CSC3=C2C#N)cc1OC (stereo not given) [3-methyl-6-oxidanylidene-8-(2,4,5-trimethoxyphenyl)-2,4,7,8-tetrahydropyrido[2,1-b][1,3,5]thiadiazine-9-carbonitrile] | 14.5 |
| COC(=O)c1oc2ccc(Br)cc2c1NC(=O)c1ccccc1 [3-benzamido-5-bromo-2-benzofurancarboxylic acid methyl ester] | 0.989 |
| OCCN1CCN(C(=S)c2ccc(Cl)c(Cl)c2)CC1 [(3,4-dichlorophenyl)-[4-(2-hydroxyethyl)-1-piperazinyl]methanethione] | 3.2 |
| N#Cc1cc(-c2ccccc2)nn1-c1ccccc1 | 0.876 |
| Cc1oc(-c2ccc(Cl)cc2)cc1-c1nn2c(-c3ccoc3C)nnc2s1 [6-[5-(4-chlorophenyl)-2-methyl-3-furanyl]-3-(2-methyl-3-furanyl)-[1,2,4]triazolo[3,4-b][1,3,4]thiadiazole] | 1.18 |
| COc1cc(C2CC(=O)N3CN(c4ccccc4C)CSC3=C2C#N)cc(OC)c1OC (stereo not given) [3-(2-methylphenyl)-6-oxidanylidene-8-(3,4,5-trimethoxyphenyl)-2,4,7,8-tetrahydropyrido[2,1-b][1,3,5]thiadiazine-9-carbonitrile] | 4.1 |
| CCOc1ccc(-n2c(=O)c3c4c(sc3n(CC(=O)NCc3ccco3)c2=O)CCC4)cc1 [2-(1,3-diketo-2-p-phenetyl-7,8-dihydro-6H-cyclopenta[2,3]thieno[2,4-b]pyrimidin-4-yl)-N-(2-furfuryl)acetamide] | 22.4 |
| CCn1c2ccccc2c2nc3cc(S(=O)(=O)N4CCOCC4)ccc3nc21 [4-(6-ethylindolo[2,3-b]quinoxalin-2-yl)sulfonylmorpholine] | 1.02 |

| SMILES | IC50 [µM] |
| --- | --- |
| CCn1c(SCC(=O)c2ccc(O)c(O)c2)nnc1-c1ccccc1OC [1-(3,4-dihydroxyphenyl)-2-[[4-ethyl-5-(2-methoxyphenyl)-1,2,4-triazol-3-yl]sulfanyl]ethanone] | 2.36 |
| Cc1cccc(C)c1NC(=O)CSCC(=O)c1ccc(O)c(O)c1 [2-[2-(3,4-dihydroxyphenyl)-2-oxoethyl]sulfanyl-N-(2,6-dimethylphenyl)acetamide] | 3.8 |
| CCOC(=O)c1sc(=S)n2c1[nH]c(=O)c1ccc(C(=O)OC)cc12 [MLS000094734] | 0.648 |
| CC1CCc2c(sc(NC(=O)c3ccc(Cn4cc(Br)cn4)o3)c2C(N)=O)C1 (stereo not given) [2-({5-[(4-bromo-1H-pyrazol-1-yl)methyl]-2-furoyl}amino)-6-methyl-4,5,6,7-tetrahydro-1-benzothiophene-3-carboxamide] | 3.19 |
| COc1ccc(-n2c(SCC(=O)N3CCCC3)nc3c([nH]c4ccccc43)c2=O)cc1 [SMR000018494] | 16.6 |
| Cc1cc(NC(=O)CSc2nc3cc4c(cc3c(=O)n2CCc2ccccc2)OCO4)no1 [2-[(8-keto-7-phenethyl-[1,3]dioxolo[4,5-g]quinazolin-6-yl)thio]-N-(5-methylisoxazol-3-yl)acetamide] | 4.79 |
| CCOC(=O)CSc1nc2cc(C(=O)NCc3ccco3)ccc2c(=O)n1-c1ccc(F)cc1 [2-[[3-(4-fluorophenyl)-7-(2-furfurylcarbamoyl)-4-keto-quinazolin-2-yl]thio]acetic acid ethyl ester] | 13.1 |
| CCC1CC2(C)NC(=O)c3c(sc4c3CC(C)(C)OC4)N2C1=O (stereo not given) [MLS000077638] | 2.88 |
| CCCCC[C@H](O)C=C[C@H]1C=CC(=O)[C@@H]1C/C=C\CCCC(=O)O [(Z)-7-[(1R,5S)-2-oxidanylidene-5-[(E,3S)-3-oxidanyloct-1-enyl]cyclopent-3-en-1-yl]hept-5-enoic acid] | 1.06 |
| Cc1nc(-c2cccc(S(=O)(=O)N3CCOCC3)c2)cs1 [4-[3-(2-methyl-1,3-thiazol-4-yl)phenyl]sulfonylmorpholine] | 5.96 |
| O=C(Cn1c(=O)oc2cc(S(=O)(=O)N3CCCC3)ccc21)NC1CCCc2ccccc21 (stereo not given) [2-(2-keto-6-pyrrolidinosulfonyl-1,3-benzoxazol-3-yl)-N-tetralin-1-yl-acetamide] | 19.8 |
| COC(=O)c1cccc(N2C(=O)C(Cl)=C(N3CCOCC3)C2=O)c1 [SMR000014938] | > 50 |
| O=c1ccc2cc3c([nH]c4ccc(Br)cc43)oc-2c1O [9-bromo-4-hydroxy-6H-[1]benzopyrano[2,3-b]indol-3-one] | 1.49 |
| CCCSc1nc2c(cnn2-c2ccc(Cl)cc2)c(=O)[nH]1 [MLS000091828] | 9.64 |
| COc1ccc(OC)c(C=Nc2oc(-c3ccco3)c(-c3ccco3)c2C#N)c1 [MLS000068778] | 4.02 |
| Nc1c(C(=O)N2CCCCC2)sc(=S)n1-c1ccccc1 [(4-amino-3-phenyl-2-sulfanylidene-1,3-thiazol-5-yl)-piperidin-1-ylmethanone] | 1.85 |
| CCCc1cc(C(=O)Nc2sc(C)c(C)c2C(=O)OCC)no1 [4,5-dimethyl-2-[(5-propylisoxazole-3-carbonyl)amino]thiophene-3-carboxylic acid ethyl ester] | 2.53 |
